Source: ChEMBL document CHEMBL1143107 (Bioorg Med Chem, 2008)

Legend:
[1] = species on record: Homo sapiens; assay: Ratio of IC50 for human COX1 to IC50 for human COX2
[2] = target: T1, Prostaglandin G/H synthase 2 (Homo sapiens, UniProt P35354)
T1 sequence (P35354 whole entry): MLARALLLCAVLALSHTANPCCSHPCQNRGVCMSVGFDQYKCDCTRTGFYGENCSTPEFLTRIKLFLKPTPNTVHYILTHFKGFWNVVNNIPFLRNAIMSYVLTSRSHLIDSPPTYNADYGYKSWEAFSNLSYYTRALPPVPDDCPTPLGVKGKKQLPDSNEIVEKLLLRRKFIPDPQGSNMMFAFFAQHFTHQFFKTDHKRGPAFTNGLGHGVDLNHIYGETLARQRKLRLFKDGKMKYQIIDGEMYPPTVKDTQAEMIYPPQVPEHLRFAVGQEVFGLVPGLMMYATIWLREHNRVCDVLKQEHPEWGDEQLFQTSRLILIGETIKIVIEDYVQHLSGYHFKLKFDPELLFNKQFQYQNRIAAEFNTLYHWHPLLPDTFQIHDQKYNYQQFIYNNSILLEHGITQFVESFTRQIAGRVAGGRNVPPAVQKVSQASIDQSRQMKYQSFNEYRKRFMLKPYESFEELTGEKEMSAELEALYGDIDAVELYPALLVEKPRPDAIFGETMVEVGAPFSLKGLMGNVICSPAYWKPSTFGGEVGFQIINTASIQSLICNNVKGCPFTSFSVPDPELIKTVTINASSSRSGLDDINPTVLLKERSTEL

[3] = species on record: Homo sapiens; assay: Ratio of IC50 for human COX1 to IC50 for human COX2 in human whole blood; format: tissue-based
[4] = target: T1, Prostaglandin G/H synthase 2; remark: listed apart in the source
Description: Inhibition of human COX2 in human whole blood

SMILES	Ratio IC50 [1]	IC50 [2]	IC50 [4]	Ratio IC50 [3]
CS(=O)(=O)c1ccc(-c2nc(NCC3CCCC3)cc(C(F)(F)F)n2)cc1	> 1	> 10000 nM	> 10000 nM	> 1
NS(=O)(=O)c1ccc(-c2nc(NCc3ccsc3)cc(C(F)(F)F)n2)cc1	1390	72 nM	51.9 nM	> 193
CS(=O)(=O)c1ccc(-c2nc(NC3CCCC3)cc(C(F)(F)F)n2)cc1	> 522	192 nM	476 nM	80
NS(=O)(=O)c1ccc(-c2nc(NCc3ccccn3)cc(C(F)(F)F)n2)cc1	> 33	3000 nM	> 10000 nM	> 10
CS(=O)(=O)c1ccc(-c2nc(NCC3CC=CCC3)cc(C(F)(F)F)n2)cc1 (centres undefined)	> 2320	43.1 nM	32.9 nM	> 304
NS(=O)(=O)c1ccc(-c2nc(NCC3CCCCC3)cc(C(F)(F)F)n2)cc1	> 140	712 nM	803 nM	> 124
NS(=O)(=O)c1ccc(-c2nc(NCc3ccco3)cc(C(F)(F)F)n2)cc1	> 6920	14.4 nM	2790 nM	> 3
NS(=O)(=O)c1ccc(-c2nc(NCc3cccs3)cc(C(F)(F)F)n2)cc1	3530	22.3 nM	158 nM	> 634

Now from value to compound, other results behind:

Ratio IC50 [1]	IC50 [2]	IC50 [4]	SMILES	Ratio IC50 [3]
> 25	3980 nM	> 10000 nM	NS(=O)(=O)c1ccc(-c2nc(NCc3ccccc3)cc(C(F)(F)F)n2)cc1	> 5
> 1	10000 nM	> 10000 nM	CS(=O)(=O)c1ccc(-c2nc(NCc3csc4ccccc34)cc(C(F)(F)F)n2)cc1	> 1
> 1	> 10000 nM	> 10000 nM	NS(=O)(=O)c1ccc(-c2nc(NCc3cccnc3)cc(C(F)(F)F)n2)cc1	> 1
> 1	> 10000 nM	> 10000 nM	CS(=O)(=O)c1ccc(-c2nc(NCc3nc4ccccc4[nH]3)cc(C(F)(F)F)n2)cc1	> 1
> 10	10000 nM	> 10000 nM	NS(=O)(=O)c1ccc(-c2nc(NCc3csc4ccccc34)cc(C(F)(F)F)n2)cc1	> 1
6570	15.2 nM	140 nM	NS(=O)(=O)c1ccc(-c2nc(NCc3cc4ccccc4s3)cc(C(F)(F)F)n2)cc1	> 71
> 1	> 10000 nM	> 10000 nM	CS(=O)(=O)c1ccc(-c2nc(NCc3ccc4ccccc4c3)cc(C(F)(F)F)n2)cc1	> 1
> 1	> 10000 nM	> 10000 nM	CS(=O)(=O)c1ccc(-c2nc(NCc3cccnc3)cc(C(F)(F)F)n2)cc1	> 1
